Converted amounts (≈) assume the structure as drawn.
Assays:
Assay type in all cases: cell-based
[1] = test system: Staphylococcus aureus OC4172; assay: In vitro antibacterial activity (MIC), microdilution broth method (NCCLS), strain A; conditions: cation adjusted Mueller-Hinton broth, 35° C., 16-20 hours
Description: (§1) Minimal inhibitory concentration (MIC) has been an indicator of in vitro antibacterial activity widely used in the art. The in vitro antimicrobial activity of representative compounds of the present invention was determined by the microdilution broth method following the test method from the National Committee for Clinical Laboratory Standards (NCCLS). This method is described in the NCCLS Document M7-A4, Vol. 17, No. 2, “Methods for Dilution Antimicrobial Susceptibility Test for Bacteria that Grow Aerobically—Fourth Edition”, which is incorporated herein by reference.
(§2) In this method two-fold serial dilutions of drug in cation adjusted Mueller-Hinton broth are added to wells in microdilution trays. The test organisms are prepared by adjusting the turbidity of actively growing broth cultures so that the final concentration of test organism after it is added to the wells is approximately 5×10^4 CFU/well.
(§3) Following inoculation of the microdilution trays, the trays are incubated at 35° C. for 16-20 hours and then read. […] The amount of growth in the wells containing the test compound is compared with the amount of growth in the growth-control wells (no test compound) used in each tray. As set forth in Table 4, representative compounds of the present invention were tested against a variety of pathogenic bacteria resulting in a range of activities depending on the organism tested.

[2] = test system: strain C, fluoroquinolone-resistant clinical isolate of Streptococcus pneumoniae; assay: In vitro antibacterial activity (MIC), microdilution broth method (NCCLS), strain C; conditions: read-out: In vitro Antibacterial Activity MIC, C
Description: as §1, §2, §3

[3] = test system: strain D, fluoroquinolone-resistant clinical isolate of Streptococcus pneumoniae; assay: In vitro antibacterial activity (MIC), microdilution broth method (NCCLS), strain D; conditions: read-out: In vitro Antibacterial Activity MIC, D
Description: as §1, §2, §3

[4] = test system: Streptococcus pneumoniae ATCC 49619; assay: In vitro antibacterial activity (MIC), microdilution broth method (NCCLS), strain E; conditions: ATCC49619, 35° C., 16-20 hours
Description: as §1, §2, §3

[5] = test system: strain B, fluoroquinolone-resistant clinical isolate of Streptococcus pneumoniae; assay: In vitro antibacterial activity (MIC), microdilution broth method (NCCLS), strain B; conditions: read-out: In vitro Antibacterial Activity MIC, B
Description: as §1, §2, §3

SMILES	MIC [1]	MIC [2]	MIC [3]	MIC [4]	MIC [5]
COc1ccc(C2=NO[C@H]3CN(c4c(F)cc5c(=O)c(C(=O)O)cn(C6CC6)c5c4OC)C[C@@H]23)cc1 (relative stereo) [ID No. 120, 7-[cis-3-(4-Methoxyphenyl)-3a,4,6,6a-tetrahydropyrrolo[3,4-d]isoxazol-5-yl]-1-cyclopropyl-8-methoxy-6-fluoro-4-oxo-1,4-dihydroquinoline-3-carboxylic acid]	0.06 µg/mL (≈ 0.122 µM)	4 µg/mL (≈ 8.11 µM)	2 µg/mL (≈ 4.05 µM)	1 µg/mL (≈ 2.03 µM)	
COc1c(N2C[C@@H]3ON=C(c4ccc(C(F)(F)F)nc4)[C@@H]3C2)c(F)cc2c(=O)c(C(=O)O)cn(C3CC3)c12 (relative stereo) [ID No. 121, 7-[cis-3-(6-Trifluoromethyl-3-pyridyl)-3a,4,6,6a-tetrahydropyrrolo[3,4-d]isoxazol-5-yl]-1-cyclopropyl-8-methoxy-6-fluoro-4-oxo-1,4-dihydroquinoline-3-carboxylic acid]	0.25 µg/mL (≈ 0.47 µM)	> 16 µg/mL	8 µg/mL (≈ 15 µM)	4 µg/mL (≈ 7.51 µM)	0.16 µg/mL (≈ 0.3 µM)
COc1c(N2C[C@@H]3ON=C(c4ccccn4)[C@@H]3C2)c(F)cc2c(=O)c(C(=O)O)cn(C3CC3)c12 (relative stereo) [ID No. 122, 7-[cis-3-(2-pyridyl)-3a,4,6,6a-tetrahydropyrrolo[3,4-d]isoxazol-5-yl]-1-cyclopropyl-8-methoxy-6-fluoro-4-oxo-1,4-dihydroquinoline-3-carboxylic acid]	< 0.12 µg/mL	16 µg/mL (≈ 34.4 µM)	2 µg/mL (≈ 4.31 µM)	1 µg/mL (≈ 2.15 µM)	16 µg/mL (≈ 34.4 µM)
COc1c(N2C[C@@H]3ON=C(c4cccnc4)[C@@H]3C2)c(F)cc2c(=O)c(C(=O)O)cn(C3CC3)c12 (relative stereo) [ID No. 123, 7-[cis-3-(3-Pyridyl)-3a,4,6,6a-tetrahydropyrrolo[3,4-d]isoxazol-5-yl]-1-cyclopropyl-8-methoxy-6-fluoro-4-oxo-1,4-dihydroquinoline-3-carboxylic acid]	0.06 µg/mL (≈ 0.129 µM)	8 µg/mL (≈ 17.2 µM)	2 µg/mL (≈ 4.31 µM)	0.5 µg/mL (≈ 1.08 µM)	8 µg/mL (≈ 17.2 µM)
COc1ccc(C2=NOC3CN(c4c(F)cc5c(=O)c(C(=O)O)cn([C@@H]6C[C@@H]6F)c5c4OC)CC23)cc1 (relative stereo) [ID No. 126, 7-[cis-3-(4-Methoxyphenyl)-3a,4,6,6a-tetrahydropyrrolo[3,4-d]isoxazol-5-yl]-1-[(1R,2S)-2-fluorocyclopropyl]-6-fluoro-8-methoxy-4-oxo-1,4-dihydro-quinoline-3-carboxylic acid]	0.03 µg/mL (≈ 0.0587 µM)	4 µg/mL (≈ 7.82 µM)	2 µg/mL (≈ 3.91 µM)	0.5 µg/mL (≈ 0.978 µM)	
COc1c(N2C[C@@H]3ON=C(c4ccccn4)[C@@H]3C2)ccc2c(=O)c(C(=O)O)cn(C3CC3)c12 (relative stereo) [ID No. 150, 7-[cis-3-(2-pyridyl)-3a,4,6,6a-tetrahydropyrrolo[3,4-d]isoxazol-5-yl]-1-cyclopropyl-8-methoxy-4-oxo-1,4-dihydroquinoline-3-carboxylic acid]	0.06 µg/mL (≈ 0.134 µM)	8 µg/mL (≈ 17.9 µM)	8 µg/mL (≈ 17.9 µM)	1 µg/mL (≈ 2.24 µM)	> 16 µg/mL
O=C(O)c1cn(-c2ccc(F)cc2F)c2nc(N3CC4ON=C(c5ccc(Cl)cc5)C4C3)c(F)cc2c1=O (stereo not drawn) [ID No. 101, 7-[3-(4-Chloro-phenyl)-3a,4,6,6a-tetrahydro-pyrrolo[3,4-d]isoxazol-5-yl]-1-(2,4-difluoro-phenyl)-6-fluoro-4-oxo-1,4-dihydro-[1,8]naphthyridine-3-carboxylic acid]	0.06 µg/mL (≈ 0.111 µM)	2 µg/mL (≈ 3.7 µM)	4 µg/mL (≈ 7.4 µM)	1 µg/mL (≈ 1.85 µM)	1 µg/mL (≈ 1.85 µM)
COc1ccc(C2=NOC3CN(c4nc5c(cc4F)c(=O)c(C(=O)O)cn5-c4ccc(F)cc4F)CC23)cn1 (stereo not drawn) [ID No. 102, 1-(2,4-Difluoro-phenyl)-6-fluoro-7-[3-(6-methoxy-pyridin-3-yl)-3a,4,6,6a-tetrahydro-pyrrolo[3,4-d]isoxazol-5-yl]-4-oxo-1,4-dihydro-[1,8]naphthyridine-3-carboxylic acid]	0.06 µg/mL (≈ 0.112 µM)	16 µg/mL (≈ 29.8 µM)	2 µg/mL (≈ 3.72 µM)	1 µg/mL (≈ 1.86 µM)	4 µg/mL (≈ 7.44 µM)
O=C(O)c1cn(C2CC2)c2nc(N3CC4ON=C(c5ccc(Cl)cc5)C4C3)c(F)cc2c1=O (stereo not drawn) [ID No. 110, 7-[3-(4-Chloro-phenyl)-3a,4,6,6a-tetrahydro-pyrrolo[3,4-d]isoxazol-5-yl]-1-cyclopropyl-6-fluoro-4-oxo-1,4-dihydro-[1,8]naphthyridine-3-carboxylic acid]	0.06 µg/mL (≈ 0.128 µM)	8 µg/mL (≈ 17.1 µM)		0.5 µg/mL (≈ 1.07 µM)	
O=C(O)c1cn(C2CC2)c2nc(N3CC4ON=C(c5cccnc5)C4C3)c(F)cc2c1=O (stereo not drawn) [ID No. 114, 1-Cyclopropyl-6-fluoro-4-oxo-7-(3-pyridin-3-yl-3a,4,6,6a-tetrahydro-pyrrolo[3,4-d]isoxazol-5-yl)-1,4-dihydro-[1,8]naphthyridine-3-carboxylic acid]	0.12 µg/mL (≈ 0.276 µM)	2 µg/mL (≈ 4.59 µM)	8 µg/mL (≈ 18.4 µM)	1 µg/mL (≈ 2.3 µM)	
COc1ccc(C2=NOC3CN(c4c(F)cc5c(=O)c(C(=O)O)cn6c5c4OC[C@@H]6C)CC23)cc1 (stereo partly drawn) [ID No. 128, 7-[cis-3-(4-Methoxyphenyl)-3a,4,6,6a-tetrahydropyrrolo[3,4-d]isoxazol-5-yl]S-(−)-9,10-difluoro-2,3-dihydro-3-methyl-7-oxo-7H-pyrido-[1,2,3-de][1,4]-benzoxazine-6-carboxylic acid]	0.12 µg/mL (≈ 0.25 µM)	4 µg/mL (≈ 8.34 µM)	4 µg/mL (≈ 8.34 µM)	1 µg/mL (≈ 2.09 µM)	
C[C@H]1COc2c(N3CC4ON=C(c5cccnc5)C4C3)c(F)cc3c(=O)c(C(=O)O)cn1c23 (stereo partly drawn) [ID No. 130, 7-[cis-3-(3-pyridyl)-3a,4,6,6a-tetrahydropyrrolo[3,4-d]isoxazol-5-yl]S-(−)-9,10-difluoro-2,3-dihydro-3-methyl-7-oxo-7H-pyrido-[1,2,3-de][1,4]-benzoxazine-6-carboxylic acid]	0.25 µg/mL (≈ 0.555 µM)	16 µg/mL (≈ 35.5 µM)	16 µg/mL (≈ 35.5 µM)	2 µg/mL (≈ 4.44 µM)	
COc1ccc(C2=NOC3CN(c4c(F)cc5c(=O)c(C(=O)O)cn(-c6nc(N)c(F)cc6F)c5c4Cl)CC23)cc1 (stereo not drawn) [ID No. 133, 1-(6-Amino-3,5-difluoro-pyridin-2-yl)-8-chloro-6-fluoro-7-[3-(4-methoxy-phenyl)-3a,4,6,6a-tetrahydro-pyrrolo[3,4-d]isoxazol-5-yl]-4-oxo-1,4-dihydro-quinoline-3-carboxylic acid]	0.25 µg/mL (≈ 0.427 µM)	8 µg/mL (≈ 13.7 µM)	16 µg/mL (≈ 27.3 µM)	2 µg/mL (≈ 3.41 µM)	
COc1c(N2CC3ON=C(CN)C3C2)c(F)cc2c(=O)c(C(=O)O)cn(C3CC3)c12 (stereo not drawn) [ID No. 202]	0.06 µg/mL (≈ 0.144 µM)	16 µg/mL (≈ 38.4 µM)	> 16 µg/mL	1 µg/mL (≈ 2.4 µM)	
COc1c(N2CC3ON=C(CN)C3C2)c(F)cc2c(=O)c(C(=O)O)cn([C@@H]3C[C@@H]3F)c12 (stereo partly drawn) [ID No. 203]	0.12 µg/mL (≈ 0.276 µM)	> 16 µg/mL	> 16 µg/mL	2 µg/mL (≈ 4.6 µM)	
C[C@H]1COc2c(N3CC4ON=C(CN)C4C3)c(F)cc3c(=O)c(C(=O)O)cn1c23 (stereo partly drawn) [ID No. 204]	0.25 µg/mL (≈ 0.621 µM)	> 16 µg/mL	> 16 µg/mL	16 µg/mL (≈ 39.8 µM)	
